Patent US20020051978A1, “Methods and compositions for the identification, assessment, prevention and therapy of human cancers” (priority 2000, published 2002)
Read-outs that look alike come from different tables or passages of the source.

What was measured:
[1] = test system: 60 cancer cell lines (NCI 60 cancer cell line series); assay: NCI-DTP in vitro cancer screen, sulforhodamine B (SRB) growth inhibition, 48 hour exposure; assay type: cell-based, human; set-up: key to sensitivity class Ovarian OVCAR-8 CL6005 / sensitivity class Ovarian SK-OV-3 CL6011 / sensitivity class Prostate DU-145 CL11003 / sensitivity class NSCLC NCI-H522 CL1003 / sensitivity class Ovarian IGROV1 CL6010 / sensitivity class Ovarian OVCAR-4 CL6002 / sensitivity class Prostate PC-3(I) CL11001 / sensitivity class Renal A498 CL9013 / sensitivity class Renal SN12C CL9008: sensitivity class: 1 = Low, 2 = Medium, 3 = High
Outline: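 Sixty NCI-DTP cancer lines plated at line-specific densities, dosed on day 1 in duplicate with 5 concentrations at ten-fold intervals. After 48 h exposure, cell mass read by SRB staining; GI50 (50% growth inhibition) taken from dose-response curves and expressed as -log GI50.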

[2] = test system: 60 cancer cell lines (NCI 60 cancer cell line series); conditions: cited from earlier work

O=c1[nH]cc(F)c(=O)[nH]1 [5-Fluorouracil]
3.9: -Log (GI50) ([2]; CNS SNB-19 (CL12002))
4.6: -Log (GI50) ([2]; Colon SW-620 (CL4009)) | -Log (GI50) ([2]; Melanoma MALME-3M CL10002)
3.8: -Log (GI50) ([2]; CNS SNB-75(I) CL12005) | -Log (GI50) ([2]; Ovarian OVCAR-5 CL6003) | -Log (GI50) ([2]; Ovarian SK-OV-3 CL6011)
1: classification of cell line as Low(1), Medium(2) or High(3) sensitivity to compound ([1]; Breast BT-549 (CL5013)) | classification of cell line as Low(1), Medium(2) or High(3) sensitivity to compound ([1]; Breast HS-578T CL5006) | classification of cell line as Low(1), Medium(2) or High(3) sensitivity to compound ([1]; Breast MDA-MB-231 CL5005) | classification of cell line as Low(1), Medium(2) or High(3) sensitivity to compound ([1]; CNS SNB-19 (CL12002)) | classification of cell line as Low(1), Medium(2) or High(3) sensitivity to compound ([1]; CNS SNB-75(I) CL12005) | sensitivity class Ovarian OVCAR-5 CL6003 ([1]; cell line Ovarian OVCAR-5, CL6003) | sensitivity class Ovarian SK-OV-3 CL6011 ([1]; cell line Ovarian SK-OV-3, CL6011) | sensitivity class Renal TK10 CL9024 ([1]; cell line Renal TK10, CL9024)
5.9: -Log (GI50) ([2]; Colon HCC-2998 (CL4002)) | -Log (GI50) ([2]; NSCLC NCI-H460 CL1021)
4.9: -Log (GI50) ([2]; Breast MDA-MB-435 (CL5011)) | -Log (GI50) ([2]; Colon KM12 (CL4017)) | -Log (GI50) ([2]; Leukemia HL-60(I) (CL7008)) | -Log (GI50) ([2]; Leukemia MOLT-4 (CL7006)) | -Log (GI50) ([2]; Renal 786-O CL9018)
4.1: -Log (GI50) ([2]; Ovarian OVCAR-4 CL6002)
4.2: -Log (GI50) ([2]; Breast T-47D (CL5014)) | -Log (GI50) ([2]; Renal RXF-393 CL9016)
5.0: -Log (GI50) ([2]; Breast MDA-N CL5012) | -Log (GI50) ([2]; NSCLC NCI-H23(I) CL1001) | -Log (GI50) ([2]; Renal A498 CL9013) | -Log (GI50) ([2]; Renal ACHN CL9023)
4.3: -Log (GI50) ([2]; CNS SF-268 CL12014) | -Log (GI50) ([2]; CNS SF-295 CL12015) | -Log (GI50) ([2]; CNS U251(I) CL12009) | -Log (GI50) ([2]; Melanoma M14 (CL10014)) | -Log (GI50) ([2]; Prostate PC-3(I) CL11001)
2: classification of cell line as Low(1), Medium(2) or High(3) sensitivity to compound ([1]; Breast MCF7/ADRr (CL5002)) | classification of cell line as Low(1), Medium(2) or High(3) sensitivity to compound ([1]; Breast MDA-MB-435 (CL5011)) | classification of cell line as Low(1), Medium(2) or High(3) sensitivity to compound ([1]; Breast MDA-N CL5012) | classification of cell line as Low(1), Medium(2) or High(3) sensitivity to compound ([1]; Breast T-47D (CL5014)) | classification of cell line as Low(1), Medium(2) or High(3) sensitivity to compound ([1]; CNS SF-268 CL12014) | classification of cell line as Low(1), Medium(2) or High(3) sensitivity to compound ([1]; CNS SF-295 CL12015) | classification of cell line as Low(1), Medium(2) or High(3) sensitivity to compound ([1]; CNS U251(I) CL12009) | classification of cell line as Low(1), Medium(2) or High(3) sensitivity to compound ([1]; Colon COLO-250 CL4010) | classification of cell line as Low(1), Medium(2) or High(3) sensitivity to compound ([1]; Colon HCT-15 CL4015) | classification of cell line as Low(1), Medium(2) or High(3) sensitivity to compound ([1]; Colon HT29(I) CL4001) | classification of cell line as Low(1), Medium(2) or High(3) sensitivity to compound ([1]; Colon KM12 (CL4017)) | classification of cell line as Low(1), Medium(2) or High(3) sensitivity to compound ([1]; Colon SW-620 (CL4009)) | classification of cell line as Low(1), Medium(2) or High(3) sensitivity to compound ([1]; Leukemia CCRF-CEM(I) (CL7003)) | classification of cell line as Low(1), Medium(2) or High(3) sensitivity to compound ([1]; Leukemia HL-60(I) (CL7008)) | classification of cell line as Low(1), Medium(2) or High(3) sensitivity to compound ([1]; Leukemia K562(I) CL7005) | classification of cell line as Low(1), Medium(2) or High(3) sensitivity to compound ([1]; Leukemia MOLT-4 (CL7006)) | classification of cell line as Low(1), Medium(2) or High(3) sensitivity to compound ([1]; Leukemia SR CL7019) | classification of cell line as Low(1), Medium(2) or High(3) sensitivity to compound ([1]; Melanoma LOX IMVI CL10001) | classification of cell line as Low(1), Medium(2) or High(3) sensitivity to compound ([1]; Melanoma M14 (CL10014)) | classification of cell line as Low(1), Medium(2) or High(3) sensitivity to compound ([1]; Melanoma MALME-3M CL10002) | sensitivity class NSCLC NCI-H23(I) CL1001 ([1]; cell line NSCLC NCI-H23(I), CL1001) | sensitivity class NSCLC NCI-H332M CL1017 ([1]; cell line NSCLC NCI-H332M, CL1017) | sensitivity class NSCLC NCI-H522 CL1003 ([1]; cell line NSCLC NCI-H522, CL1003) | sensitivity class Ovarian IGROV1 CL6010 ([1]; cell line Ovarian IGROV1, CL6010) | sensitivity class Ovarian OVCAR-3 CL6001 ([1]; cell line Ovarian OVCAR-3, CL6001) | sensitivity class Ovarian OVCAR-4 CL6002 ([1]; cell line Ovarian OVCAR-4, CL6002) | sensitivity class Ovarian OVCAR-8 CL6005 ([1]; cell line Ovarian OVCAR-8, CL6005) | sensitivity class Prostate DU-145 CL11003 ([1]; cell line Prostate DU-145, CL11003) | sensitivity class Prostate PC-3(I) CL11001 ([1]; cell line Prostate PC-3(I), CL11001) | sensitivity class Renal 786-O CL9018 ([1]; cell line Renal 786-O, CL9018) | sensitivity class Renal A498 CL9013 ([1]; cell line Renal A498, CL9013) | sensitivity class Renal ACHN CL9023 ([1]; cell line Renal ACHN, CL9023) | sensitivity class Renal RXF-393 CL9016 ([1]; cell line Renal RXF-393, CL9016) | sensitivity class Renal SN12C CL9008 ([1]; cell line Renal SN12C, CL9008) | sensitivity class Renal UO-31 CL9004 ([1]; cell line Renal UO-31, CL9004)
3.6: -Log (GI50) ([2]; Renal TK10 CL9024)
5.1: -Log (GI50) ([2]; Prostate DU-145 CL11003)
3.7: -Log (GI50) ([2]; Breast HS-578T CL5006)
3: classification of cell line as Low(1), Medium(2) or High(3) sensitivity to compound ([1]; Breast MCF7(I) (CL5001)) | classification of cell line as Low(1), Medium(2) or High(3) sensitivity to compound ([1]; CNS SF-539 CL12016) | classification of cell line as Low(1), Medium(2) or High(3) sensitivity to compound ([1]; Colon HCC-2998 (CL4002)) | classification of cell line as Low(1), Medium(2) or High(3) sensitivity to compound ([1]; Colon HCT-116 (CL4003)) | classification of cell line as Low(1), Medium(2) or High(3) sensitivity to compound ([1]; Leukemia RPMI-8226(I) (CL7010)) | sensitivity class NSCLC NCI-H460 CL1021 ([1]; cell line NSCLC NCI-H460, CL1021) | sensitivity class Renal CAKI-1 CL9015 ([1]; cell line Renal CAKI-1, CL9015)
5.3: -Log (GI50) ([2]; Leukemia RPMI-8226(I) (CL7010)) | -Log (GI50) ([2]; Renal CAKI-1 CL9015)
5.2: -Log (GI50) ([2]; Colon COLO-250 CL4010) | -Log (GI50) ([2]; Colon HCT-15 CL4015) | -Log (GI50) ([2]; Colon HT29(I) CL4001) | -Log (GI50) ([2]; Leukemia SR CL7019) | -Log (GI50) ([2]; Melanoma LOX IMVI CL10001) | -Log (GI50) ([2]; Renal UO-31 CL9004)
3.4: -Log (GI50) ([2]; Breast MDA-MB-231 CL5005)
4.4: -Log (GI50) ([2]; Breast MCF7/ADRr (CL5002)) | -Log (GI50) ([2]; NCSLC NCI-H522 CL1003) | -Log (GI50) ([2]; NSCLC NCI-H332M CL1017) | -Log (GI50) ([2]; Ovarian OVCAR-3 CL6001)
4.0: -Log (GI50) ([2]; Breast BT-549 (CL5013))
4.8: -Log (GI50) ([2]; Leukemia K562(I) CL7005) | -Log (GI50) ([2]; Ovarian IGROV1 CL6010) | -Log (GI50) ([2]; Ovarian OVCAR-8 CL6005)
4.5: -Log (GI50) ([2]; Leukemia CCRF-CEM(I) (CL7003)) | -Log (GI50) ([2]; Renal SN12C CL9008)
5.7: -Log (GI50) ([2]; Breast MCF7(I) (CL5001))
6.1: -Log (GI50) ([2]; CNS SF-539 CL12016)
5.4: -Log (GI50) ([2]; Colon HCT-116 (CL4003))
